Here are results for 10 molecules from paper PMC10487970, “Exploring the Impact of Head Group Modifications on the Anticancer Activities of Fatty-Acid-like Platinum(IV) Prodrugs: A Structure–Activity Relationship Study” (International Journal of Molecular Sciences, 2023).

Series [1] concerns MDA-MB-231 breast cancer cells. The series can be described thus: MTT cytotoxicity assay, MDA-MB-231. Format: cell-based, human. The note with it: 24 h treatment, triple-negative MDA-MB-231. The protocol:
(§1) Cytotoxicity profiles of FALP derivatives with various head groups . The in vitro anticancer activity of the Pt(IV) prodrugs (1–9) was assessed using the 3-(4,5-dimethylthiazol-2-yl)-2,5-diphenyltetrazolium bromide (MTT) assay. This study utilized two human cancer cell lines, namely A2780cis and MDA-MB-231. A2780cis is an ovarian cancer cell line known for its resistance to conventional platinum chemotherapy, making it a formidable challenge to treat. On the other hand, MDA-MB-231 represents a triple-negative breast cancer cell line, which is currently recognized as one of the difficult-to-treat cancer types. The cells were treated with 1–9 or cisplatin for 24 h, and the cell viability was evaluated. The IC50 values, which represent the concentration of the drug required to inhibit the growth of cells by 50%, are reported in the table in Figure 1B. […] Overall, the head group modifications of FALPs result in an alternation of therapeutic effects, which is a promising way to fine-tune the anticancer activity of this class of metallodrugs.
(§2) Cell culture. A2780cis cell lines were purchased from Sigma-Aldrich and cultured in RPMI 1640 with L-glutamine (Corning, New York, NY, USA) supplemented with 10% FBS (Atlanta Biologicals, USA) and 1% penicillin-streptomycin (Corning). The MDA-MB-231 cell line was obtained via American Type Culture Collection, and cultured in DMEM 1 g/L glucose, with L-glutamine and sodium pyruvate (Corning) supplemented with 10% FBS and 1% penicillin-streptomycin (Corning). All cell lines were cultured at 37 °C under an atmosphere containing 5% CO2. Cells were passaged upon reaching 80–90% confluence via trypsinization and split in a 1:5 ratio.
(§3) MTT assays. Cytotoxicity profiles of compounds 1–9 and cisplatin against different cell lines (A2780cis and MDA-MB-231) were evaluated using the MTT assays. A volume of 100 μL of a RPMI or DMEM containing 8 × 10^4 cells/mL was seeded in 96-well plates. The plates were incubated for 24 h at 37 °C with 5% CO2 to allow for adherence of cells. A volume of 50 μL of RPMI or DMEM with various concentrations of cisplatin or compounds 1–9 were added to each well of the microplates. The Pt concentrations were determined via GFAAS. After 24 h, a volume of 30 μL of MTT (5.0 mg/mL in PBS, Alfa Aesar, Haverhill, MA, USA) was added to each well of the microplates. After 24 h, the medium was aspirated, and 200 μL of DMSO was added to each well. The plates were shaken gently on a shaker at r.t. for 10 min. Then, the absorbance of purple formazan was recorded at 562 nm with a BioTek ELx800 plate reader. IC50 values were determined using Origin software v7.0. All experiments were performed in triplicate.
On the technique in general: Formazan colour is commonly taken as a measure of viable cells.

Series [2] deals with A2780cis ovarian cancer cells. The series can be described thus: MTT cytotoxicity assay, A2780cis. The note with it: 24 h treatment, cisplatin-resistant A2780cis. Type of series: cell-based, human. The protocol:
as §1, §2, §3

Series [3] in a line: GFAAS analysis of Log P values (H2O:octanol). Type of series: physicochemical. The note with it: H2O:octanol 1:1, Pt content of each phase by GFAAS; whole compound. The protocol:
The samples were first dissolved with DMSO to create 200 µM stocks. From these stocks, 50 µL was added to a H2O:Octanol mixture with a 1:1 volume ratio. This mixture was vortexed for 5 min and subsequently centrifuged for 3 min at 3000 rpm. Following centrifugation, the H2O and octanol layers were isolated for analysis. The Pt content in each phase was quantified using GFAAS to calculate the Log P value.

In series [4] the test system is A2780cis cells. The series can be described thus: LIVE/DEAD cell viability imaging assay. Format: cell-based, human. The following applies: [Pt] = 1 μM, 24 h.
Method: LIVE/DEAD cell viability assays. […] Before the assay, the cells were washed with 1 mL PBS and 1 mL dye-free RPMI to remove serum esterase activity that is generally present in serum-supplemented growth media. A 100 μL volume of LIVE/DEAD working solution (formed by mixing 2 µM of calcein AM and 2 μM ethidium homodimer-1 in PBS) was carefully added to the disk, which was then incubated at r.t. for 30 min. Images were acquired using an Olympus IX70 inverted epifluorescence microscope equipped with a digital CCD camera (QImaging, Surrey, BC, Canada). Images were processed, and intensities were quantified with ImageJ software (NIH).
For series [5], the system named is A2780cis cells. The series can be described thus: GFAAS analysis of cellular platinum contents. The following applies: [Pt] = 1 μM, 24 h. Format: cell-based, human. From the text: (§4) Cell entry and mitochondrial accumulation of FALP derivatives with head groups of different hydrophobicities. Our next objective was to gain a more detailed understanding of how modifications to the head group of FALPs affect their anticancer activities through hydrophobicity. Cellular uptake is widely recognized as a critical factor in the activity of metallodrugs. The influence of hydrophobicity on the cellular uptake of therapeutic molecules has been widely acknowledged, with an increase in hydrophobicity typically promoting cell entry. To this end, we conducted a graphite furnace atomic absorption spectroscopic (GFAAS) analysis of the cellular uptake for FALPs with various head group modifications, including 2 and 7. […] We previously discovered that mitochondria play significant roles in the mechanism of action of FALPs, so we further investigated how the hydrophobicity of the head group modifications affects the mitochondrial accumulation of FALPs. […] In summary, the introduction of a hydrophilic head group in FALPs promotes cell entry and mitochondrial accumulation.
GFAAS analysis of cellular platinum contents in A2780cis cells. […] The remaining live cells were harvested via trypsinization and counted. […] The Pt contents in the cells were analyzed via GFAAS. […]

The test system of series [6] is A2780cis cells. The series can be described thus: Flow cytometric analysis of apoptosis (Annexin V/PI). Type of series: cell-based, human. The following applies: [Pt] = 0.5 μM, 48 h. On the procedure:
(§5) Cellular Responses of FALP derivatives with head groups of different hydrophobicity. Based on the observation that hydrophilic head group modifications lead to increased intracellular Pt levels, we formulated the hypothesis that such modifications would result in greater mitochondrial and DNA damage, as well as increased apoptosis. MitoSOX was utilized to assess the levels of mitochondrial ROS, while the γH2AX levels were analyzed to determine DNA damage. As mitochondrial and DNA damage are known to promote apoptosis, Annexin V/PI assays were also conducted to examine the apoptotic effects. A flow cytometric analysis was used to evaluate the mitochondrial ROS, γH2AX, and apoptosis in the cancer cells treated with FALPs (2 and 7) in the experiments. […] Based on the results, it can be inferred that the FALP derivative (2) with a hydrophilic head group modification induces mitochondrial and DNA damage as well as apoptosis more effectively than the one (7) with a hydrophobic modification.
Flow cytometric analysis of apoptosis. A2780cis cells were seeded in a 6-well plate at a concentration of 3 × 10^5 cells/well. Cells were then incubated at 37 °C 5% CO2 for 24 h. […] Both live and dead cells were collected, resuspended in 1mL PBS, and counted. […] Cells were then analyzed with FL-1 and FL-3 channels on a BD Accuri C6 flow cytometer and data were processed with FlowJo.

Series [7] relates to mitochondria of A2780cis cells. Description: Measurement of mitochondrial platinum contents. The following applies: [Pt] = 1 μM, 24 h, isolated mitochondria, GFAAS. Format: cell-based, human.
From the text: as §4
Measurements of mitochondrial platinum contents in A2780cis cells. […] Next, the wells were washed with PBS (1 mL) and harvested via trypsinization (1 mL) and counted. […] Next, the fractions were diluted 4× in water and the platinum content was analyzed using GFAAS. […]

For series [8], the system named is mitochondrial ROS in A2780cis cells. Description: Flow cytometric analysis of MitoSOX (mitochondrial ROS). Format: cell-based, human. The note with it: [Pt] = 10 μM, 24 h, control 41.1%. The protocol: as §5
Flow cytometric analysis of MitoSOX. A2780cis cells were seeded in 6-well plate at a concentration of 6 × 10^4 cells/mL and incubated overnight. […] The cells were then re-suspended in PBS with 0.5% BSA to reach 10^6 cells/mL and analyzed with BD Accuri C6 flow cytometer using FL-2 channel, and data were processed with FlowJo v10.
A general note: In flow cytometry, cells or beads pass a laser one at a time.

In the case of `CCCCCCCCCCCCCCCCNC(=O)CCC(=O)[O][Pt]([NH2])([NH2])([Cl])([Cl])[O]C(=O)NCC(=O)OCC` [Compound 9], the results for the IC50 in series [1] and in series [2] were 1.42 ± 0.07 µM and 0.4 ± 0.01 µM, respectively.

As to `CCCCCCCCCCCCCCCCNC(=O)[O][Pt]([NH2])([NH2])([Cl])([Cl])[O]C(=O)CCC(=O)NCCOCCO` [Compound 2], the “Log P determined via GFAAS” value in series [3] was determined as 1.97. The IC50 (in general, the concentration at which inhibition is half-maximal) in series [1] is 0.76 ± 0.03 µM; in series [2], 0.3 ± 0.06 µM. The “Live/dead cell imaging result” value in series [4] was “effectively eliminated all drug-resistant A2780cis ovarian cancer cells”. In series [5], the “Cellular uptake (cellular Pt content)” value came out at 496.6 ± 16.09 pmol Pt/million cells. Also, the “Apoptosis, Annexin V/PI plot, upper right quadrant (late stages of apoptosis)” value in series [6] amounted to 23.3%. Moreover, in series [7], the “Mitochondrial Pt content” value is 31.7 ± 5.1 pmol Pt/million cells.

Consider `CCCCCCCCCCCCCCCCNC(=O)[O][Pt]([NH2])([NH2])([Cl])([Cl])[O]C(=O)CCC(=O)NCCCCCC` [Compound 7], for which, in series [3], the “Log P determined via GFAAS” value amounted to 2.57. Moreover, the values for the IC50 in series [1] and in series [2] were 7.05 ± 0.8 µM and 3.75 ± 0.47 µM, respectively. Besides, the “Live/dead cell imaging result” value in series [4] was “ineffective”. For the same molecule, the “Cellular uptake (cellular Pt content)” value in series [5] is on record as 60.03 ± 8.01 pmol Pt/million cells. Further, the “Apoptosis, Annexin V/PI plot, upper right quadrant (late stages of apoptosis)” value in series [6] was determined as 3.58%. Further, the “Mitochondrial Pt content” value in series [7] amounted to 11.72 ± 2.76 pmol Pt/million cells.

Consider `CCCCCCCCCCCCCCCCNC(=O)[O][Pt]([NH2])([NH2])([Cl])([Cl])[O]C(=O)CCC(=O)NCC(=O)OCC` [Compound 5], for which the IC50 in series [1] stood at 5.22 ± 1.03 µM; in series [2], 0.39 ± 0.08 µM.

As to `CCCCCCCCCCCCCCCCNC(=O)[O][Pt]([NH2])([NH2])([Cl])([Cl])[O]C(=O)CCC(=O)NCCOC` [Compound 3], the IC50 in series [1] was 1.9 ± 0.3 µM; in series [2], 0.7 ± 0.04 µM.

With `CCCCCCCCCCCCCCCCNC(=O)[O][Pt]([NH2])([NH2])([Cl])([Cl])[O]C(=O)CCC(=O)NC12CC3CC(CC(C3)C1)C2` [Compound 8], the figures for the IC50 in series [1] and in series [2] were 6.09 ± 0.3 µM and 5.07 ± 0.71 µM, respectively.

Regarding `CCCCCCCCCCCCCCCCNC(=O)[O][Pt]([NH2])([NH2])([Cl])([Cl])[O]C(=O)CCC(=O)NCCC` [Compound 6], the IC50 in series [1] is 1.5 ± 0.4 µM; in series [2] it was 1.12 ± 0.07 µM.

As for `CCCCCCCCCCCCCCCCNC(=O)[O][Pt]([NH2])([NH2])([Cl])([Cl])[O]C(=O)CCC(=O)NCC#N` [Compound 4], the IC50 amounted to 1.63 ± 0.12 µM in series [1] and 0.41 ± 0.05 µM in series [2].

On to `CCCCCCCCCCCCCCCCNC(=O)[O][Pt]([Cl])([Cl])[O]C(=O)CCC(=O)O.N.N` [Compound 1], for which the IC50 in series [1] stood at 6.3 ± 0.4 µM; in series [2] it was 1 ± 0.06 µM.

For `N.N.[Cl][Pt][Cl]` [Cisplatin, cisplatin, reference compound], the IC50 is 92 ± 8 µM in series [1] and 109 ± 13.5 µM in series [2]. The “MitoSOX (mitochondrial ROS, flow cytometry)” value in series [8] is reported as “insignificant change”.
